# Data: patent US6911431B1 (priority 1989, dated 2005)
# Experiments:
# Lewis lung carcinoma = test: Inhibition of Lewis lung tumor neovascularization; format: in vivo, C57BL/6 mice
# Procedure: Lewis lung carcinoma cells (5×10^7) when injected (0.1 ml) intradermally into both flanks of C57BL/6 mice (day 0) produce a visible highly vascularized tumor nodules within 7 days. By excising the tumor the degree of tumor vascularity may be determined microscopically by counting the number of large vessels radiating from the tumor mass.
# [1] = tested on: chicken embryo chorioallantoic membrane; test: Chicken embryo chorioallantoic membrane (CAM) angiogenesis assay; format: in vivo; conditions: for Inhibition of Neovascularization Grade/Range / Mean % Inhibition of Neovascularization / Inhibition of Neovascularization Grade/Mean ± SD: 48 hrs; for Inhibition of Neovascularization Grade/Mean ± SD: grade scale 0-4
# Procedure: Briefly, eight-day chicken embryos were removed from eggs and placed into sterile petri dishes. Individual filter paper disks were saturated with 7.5 μl of different stock solutions of L-Glu-L-Trp dissolved in sterile 0.14M NaCl to achieve final test concentrations of 0.001, 0.01, 0.1, 1.0, 10, 100, 500, and 1000 μg per disk. Disks were air dried and then inverted onto the surface of the respective embryos.
# In this experiment saline served as a negative control and 10 μg/disk of heparin served as a positive control. The pentapeptide Thr-Ala-Glu-Glu-Lys (TAEEK) (SEQ ID NO 7) served as a specificity control, (i.e., for possible nonspecific effects of peptides on neovascularization at the concentrations tested). Nine-12 test disks and a corresponding number of different embryos were employed for each test concentration along with […] (each) positive and negative control embryos.
# Sarcoma 180 tumors = test: Sarcoma 180 tumor size after prophylactic treatment; format: in vivo, Swiss-Webster mice
# Procedure: Neovascularization is required for tumor growth. Anti-tumor activity of L-Glu-L-Trp was evaluated at an independent contract research organization. Sarcoma 180 tumors (ATCC CCL-8 CCRF S-180 II) were induced by injecting 2×10^6 cells/0.1 ml im into each rear flank of Swiss-Webster mice. Groups consisted of 10 animals (20 tumors). L-Glu-L-Trp was administered in a single 0.1 ml dose of either 10 μg/kg, 75 μg/kg, 250 μg/kg or 1000 μg/kg. Tumor size was evaluated by surgically removing and weighing the affected limbs, and comparing the weight with the weight of normal control (non-tumor) limbs. The first prophylactic drug regimen (PDR-1) consisted of 5 consecutive daily ip injections commencing on day −5 and ending of day −1. The second prophylactic drug regimen (PDR-2) consisted of 5 consecutive daily im injections to the left rear flank (tumor site) beginning on day −5 and ending on day −1. Sarcoma 180 cells were injected im on day 0. Saline 0.1 ml served as the negative control.
# [2] = PDR-1 (ip, day −5 to −1), 10 μg/kg
# [3] = PDR-1 (ip, day −5 to −1), 75 μg/kg
# [4] = PDR-1 (ip, day −5 to −1), 250 μg/kg
# [5] = PDR-1 (ip, day −5 to −1), 1000 μg/kg
# [6] = PDR-2 (im left flank), 10 μg/kg
# [7] = PDR-2 (im left flank), 75 μg/kg
# [8] = PDR-2 (im left flank), 250 μg/kg
# [9] = PDR-2 (im left flank), 1000 μg/kg
# [10] = PDR-2 (im left rear flank, day −5 to −1), 10 μg/kg
# [11] = PDR-2 (im left rear flank, day −5 to −1), 75 μg/kg
# [12] = PDR-2 (im left rear flank, day −5 to −1), 250 μg/kg
# [13] = PDR-2 (im left rear flank, day −5 to −1), 1000 μg/kg
molecule,measurement,setting,value
"O=P1(N(CCCl)CCCl)NCCCO1 (stereo not shown) [Cytoxan, reference compound]",No. Vessels (Mean ± S.D.),"Lewis lung carcinoma; Dose 200 (column head μg/kg/dose), administered only on day 2",9 ± 5
L-Glu-L-Trp,No. Vessels (Mean ± S.D.),Lewis lung carcinoma; 125 μg/kg/dose im daily for 5 days,6 ± 3
same,No. Vessels (Mean ± S.D.),Lewis lung carcinoma; 250 μg/kg/dose im daily for 5 days,7 ± 2
same,No. Vessels (Mean ± S.D.),Lewis lung carcinoma; 500 μg/kg/dose im daily for 5 days,9 ± 4
same,No. Vessels (Mean ± S.D.),Lewis lung carcinoma; 1000 μg/kg/dose im daily for 5 days,12 ± 5
same,No. Vessels (Mean ± S.D.),Lewis lung carcinoma; 2000 μg/kg/dose im daily for 5 days,17 ± 7
same,Inhibition of Neovascularization Grade/Range,[1]; 0.001 μg/disk,0-2
same,Mean % Inhibition of Neovascularization,[1]; 0.001 μg/disk,33 ± 20%
same,Inhibition of Neovascularization Grade/Mean ± SD,[1]; 0.001 μg/disk,1.3 ± 0.82
same,decrease in vascularity in embryos,[1]; 10 ng-1000 μg in saline,30-88%
same,Inhibition of Neovascularization Grade/Range,[1]; 0.01 μg/disk,1-2
same,Mean % Inhibition of Neovascularization,[1]; 0.01 μg/disk,38 ± 13%
same,Inhibition of Neovascularization Grade/Mean ± SD,[1]; 0.01 μg/disk,1.5 ± 0.53
same,Inhibition of Neovascularization Grade/Range,[1]; 0.1 μg/disk,0-3
same,Mean % Inhibition of Neovascularization,[1]; 0.1 μg/disk,48 ± 23%
same,Inhibition of Neovascularization Grade/Mean ± SD,[1]; 0.1 μg/disk,1.9 ± 0.88
same,Inhibition of Neovascularization Grade/Range,[1]; 1 μg/disk,1-4
same,Mean % Inhibition of Neovascularization,[1]; 1 μg/disk,58 ± 23%
same,Inhibition of Neovascularization Grade/Mean ± SD,[1]; 1 μg/disk,2.33 ± 0.89
same,Inhibition of Neovascularization Grade/Range,[1]; 10 μg/disk,1-4
same,Mean % Inhibition of Neovascularization,[1]; 10 μg/disk,78 ± 28%
same,Inhibition of Neovascularization Grade/Mean ± SD,[1]; 10 μg/disk,3.09 ± 1.14
same,Inhibition of Neovascularization Grade/Range,[1]; 100 μg/disk,3-4
same,Mean % Inhibition of Neovascularization,[1]; 100 μg/disk,85 ± 18%
same,Inhibition of Neovascularization Grade/Mean ± SD,[1]; 100 μg/disk,3.44 ± 0.73
same,Inhibition of Neovascularization Grade/Range,[1]; 500 μg/disk,1-4
same,Mean % Inhibition of Neovascularization,[1]; 500 μg/disk,60 ± 20%
same,Inhibition of Neovascularization Grade/Mean ± SD,[1]; 500 μg/disk,2.4 ± 0.84
same,Inhibition of Neovascularization Grade/Range,[1]; 1000 μg/disk,2-4
same,Mean % Inhibition of Neovascularization,[1]; 1000 μg/disk,83 ± 20%
same,Inhibition of Neovascularization Grade/Mean ± SD,[1]; 1000 μg/disk,3.3 ± 0.82
same,Mean Tumor Weight Left,"Sarcoma 180 tumors; PDR-1 (ip), 10 μg/kg",3.0
same,Percent of Control Tumor Weight Left,"Sarcoma 180 tumors; PDR-1 (ip), 10 μg/kg",120%
same,Mean Tumor Weight Right,"Sarcoma 180 tumors; PDR-1 (ip), 10 μg/kg",2.9
same,Percent of Control Tumor Weight Right,"Sarcoma 180 tumors; PDR-1 (ip), 10 μg/kg",126%
same,Mean Tumor Weight Left,"Sarcoma 180 tumors; PDR-1 (ip), 75 μg/kg",3.0
same,Percent of Control Tumor Weight Left,"Sarcoma 180 tumors; PDR-1 (ip), 75 μg/kg",120%
same,Mean Tumor Weight Right,"Sarcoma 180 tumors; PDR-1 (ip), 75 μg/kg",3.0
same,Percent of Control Tumor Weight Right,"Sarcoma 180 tumors; PDR-1 (ip), 75 μg/kg",130%
same,Mean Tumor Weight Left,"Sarcoma 180 tumors; PDR-1 (ip), 250 μg/kg",2.3
same,Percent of Control Tumor Weight Left,"Sarcoma 180 tumors; PDR-1 (ip), 250 μg/kg",92%
same,Mean Tumor Weight Right,"Sarcoma 180 tumors; PDR-1 (ip), 250 μg/kg",1.9
same,Percent of Control Tumor Weight Right,"Sarcoma 180 tumors; PDR-1 (ip), 250 μg/kg",83%
same,Mean Tumor Weight Left,"Sarcoma 180 tumors; PDR-1 (ip), 1000 μg/kg",1.3
same,Percent of Control Tumor Weight Left,"Sarcoma 180 tumors; PDR-1 (ip), 1000 μg/kg",52%
same,Mean Tumor Weight Right,"Sarcoma 180 tumors; PDR-1 (ip), 1000 μg/kg",1.0
same,Percent of Control Tumor Weight Right,"Sarcoma 180 tumors; PDR-1 (ip), 1000 μg/kg",43%
same,Leg Weight Left,Sarcoma 180 tumors; [2],4.2 ± 0.9 g
same,Leg Weight Right,Sarcoma 180 tumors; [2],4.1 ± 0.7 g
same,Leg Weight Left,Sarcoma 180 tumors; [3],4.2 ± 0.8 g
same,Leg Weight Right,Sarcoma 180 tumors; [3],4.2 ± 0.8 g
same,Leg Weight Left,Sarcoma 180 tumors; [4],3.5 ± 1.0 g
same,Leg Weight Right,Sarcoma 180 tumors; [4],3.1 ± 0.6 g
same,Leg Weight Left,Sarcoma 180 tumors; [5],2.5 ± 0.7 g
same,Leg Weight Right,Sarcoma 180 tumors; [5],2.2 ± 0.5 g
same,Mean Tumor Weight Left,Sarcoma 180 tumors; [6],2.4
same,Percent of Control Tumor Weight Left,Sarcoma 180 tumors; [6],96%
same,Mean Tumor Weight Right,Sarcoma 180 tumors; [6],2.6
same,Percent of Control Tumor Weight Right,Sarcoma 180 tumors; [6],113%
same,Mean Tumor Weight Left,Sarcoma 180 tumors; [7],2.4
same,Percent of Control Tumor Weight Left,Sarcoma 180 tumors; [7],96%
same,Mean Tumor Weight Right,Sarcoma 180 tumors; [7],3.3
same,Percent of Control Tumor Weight Right,Sarcoma 180 tumors; [7],143%
same,Mean Tumor Weight Left,Sarcoma 180 tumors; [8],1.8
same,Percent of Control Tumor Weight Left,Sarcoma 180 tumors; [8],72%
same,Mean Tumor Weight Right,Sarcoma 180 tumors; [8],1.1
same,Percent of Control Tumor Weight Right,Sarcoma 180 tumors; [8],48%
same,Mean Tumor Weight Left,Sarcoma 180 tumors; [9],1.2
same,Percent of Control Tumor Weight Left,Sarcoma 180 tumors; [9],48%
same,Mean Tumor Weight Right,Sarcoma 180 tumors; [9],1.3
same,Percent of Control Tumor Weight Right,Sarcoma 180 tumors; [9],57%
same,Leg Weight Left,Sarcoma 180 tumors; [10],3.6 ± 0.7 g
same,Leg Weight Right,Sarcoma 180 tumors; [10],3.8 ± 0.7 g
same,Leg Weight Left,Sarcoma 180 tumors; [11],3.6 ± 0.7 g
same,Leg Weight Right,Sarcoma 180 tumors; [11],3.5 ± 0.3 g
same,Leg Weight Left,Sarcoma 180 tumors; [12],3.0 ± 0.1 g
same,Leg Weight Right,Sarcoma 180 tumors; [12],2.3 ± 0.5 g
same,Leg Weight Left,Sarcoma 180 tumors; [13],2.4 ± 0.5 g
same,Leg Weight Right,Sarcoma 180 tumors; [13],2.5 ± 0.5 g
Thr-Ala-Glu-Glu-Lys (TAEEK) [pentapeptide specificity control],Inhibition of Neovascularization Grade/Range,[1]; 0.001 μg/disk,0-0
same,Mean % Inhibition of Neovascularization,[1]; 0.001 μg/disk,0%
same,Inhibition of Neovascularization Grade/Mean ± SD,[1]; 0.001 μg/disk,0 ± 0
same,Inhibition of Neovascularization Grade/Range,[1]; 0.01 μg/disk,0-0
same,Mean % Inhibition of Neovascularization,[1]; 0.01 μg/disk,0%
same,Inhibition of Neovascularization Grade/Mean ± SD,[1]; 0.01 μg/disk,0 ± 0
same,Inhibition of Neovascularization Grade/Range,[1]; 0.1 μg/disk,0-0
same,Mean % Inhibition of Neovascularization,[1]; 0.1 μg/disk,0%
same,Inhibition of Neovascularization Grade/Mean ± SD,[1]; 0.1 μg/disk,0 ± 0
same,Inhibition of Neovascularization Grade/Range,[1]; 1 μg/disk,0-1
same,Mean % Inhibition of Neovascularization,[1]; 1 μg/disk,8 ± 10%
same,Inhibition of Neovascularization Grade/Mean ± SD,[1]; 1 μg/disk,0.33 ± 0.49
same,Inhibition of Neovascularization Grade/Range,[1]; 10 μg/disk,0-1
same,Mean % Inhibition of Neovascularization,[1]; 10 μg/disk,5 ± 10%
same,Inhibition of Neovascularization Grade/Mean ± SD,[1]; 10 μg/disk,0.18 ± 0.40
same,Inhibition of Neovascularization Grade/Range,[1]; 100 μg/disk,0-2
same,Mean % Inhibition of Neovascularization,[1]; 100 μg/disk,18 ± 23%
same,Inhibition of Neovascularization Grade/Mean ± SD,[1]; 100 μg/disk,0.67 ± 0.87
same,Inhibition of Neovascularization Grade/Range,[1]; 500 μg/disk,0-1
same,Mean % Inhibition of Neovascularization,[1]; 500 μg/disk,9 ± 13%
same,Inhibition of Neovascularization Grade/Mean ± SD,[1]; 500 μg/disk,0.3 ± 0.48
same,Inhibition of Neovascularization Grade/Range,[1]; 1000 μg/disk,0-2
same,Mean % Inhibition of Neovascularization,[1]; 1000 μg/disk,18 ± 20%
same,Inhibition of Neovascularization Grade/Mean ± SD,[1]; 1000 μg/disk,0.7 ± 0.82
heparin,Inhibition of Neovascularization Grade/Range,[1]; 10 μg/disk,1-4
same,Mean % Inhibition of Neovascularization,[1]; 10 μg/disk,81 ± 18%
same,Inhibition of Neovascularization Grade/Mean ± SD,[1]; 10 μg/disk,3.26 ± 0.73
